Like-named read-outs stand apart in the source and are kept apart here.

Holding throughout (assay type): biochemical
Assay [1] deals with CDK2/CCNE1 (Homo sapiens, UniProt P24941). The assay is described as follows: CDK2 homogeneous time-resolved fluorescence (HTRF) kinase assay. Conditions: CDK2/CCNE. The method in brief:
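An HTRF format measures CDK2/CCNE1 (3 nM) phosphorylating a 4E-BP1 Thr37/46 peptide at high (1 mM) ATP. Reactions run one hour at 23 °C, then EDTA-quenched and probed with Eu-labelled phospho-specific antibody.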
Background: TR-FRET usually uses a lanthanide donor and a delayed reading to cut background.

For assay [2], the target named is CDK4/CCND3 (Homo sapiens, UniProt P11802). As to the kind of experiment: CDK4 homogeneous time-resolved fluorescence (HTRF) kinase assay. Conditions: CDK4/CCND; x = IC50 >250 nM; read-out: CDK4/CCND IC50 (>250 nM column). A digest of the protocol: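 TR-FRET read (665 nm, or 665/615 ratio) of 4E-BP1 Thr37/46 phosphorylation by 1.5 nM CDK4/CCND3 at 1 mM ATP, 50 nM ULight peptide, 1% DMSO. Reaction ran 60 min at 23 °C after 20 min compound–enzyme preincubation. IC50 from 11-point half-log dilutions, top 10 μM.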
CDK4/CCND3, sequence (P11802 whole entry): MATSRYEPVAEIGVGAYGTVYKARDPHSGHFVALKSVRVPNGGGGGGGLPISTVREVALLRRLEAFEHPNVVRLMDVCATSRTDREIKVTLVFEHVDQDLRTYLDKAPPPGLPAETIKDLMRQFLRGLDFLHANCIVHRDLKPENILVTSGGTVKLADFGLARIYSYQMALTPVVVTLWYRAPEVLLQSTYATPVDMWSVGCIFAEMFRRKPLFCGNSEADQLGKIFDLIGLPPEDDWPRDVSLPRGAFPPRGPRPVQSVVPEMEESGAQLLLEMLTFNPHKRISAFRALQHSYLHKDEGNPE
CDK4/CCND3, sequence (P30281 whole entry partner): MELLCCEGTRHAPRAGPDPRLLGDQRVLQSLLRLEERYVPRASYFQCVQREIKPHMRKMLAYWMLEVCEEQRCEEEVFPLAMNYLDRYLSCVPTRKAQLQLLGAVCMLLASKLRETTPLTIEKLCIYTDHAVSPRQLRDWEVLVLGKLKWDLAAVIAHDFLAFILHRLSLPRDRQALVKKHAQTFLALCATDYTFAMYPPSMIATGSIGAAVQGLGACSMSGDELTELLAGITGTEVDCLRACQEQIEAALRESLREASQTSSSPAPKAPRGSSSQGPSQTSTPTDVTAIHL

Assay [3] has as its target CDK6/CCND1 (Homo sapiens, UniProt Q00534). As to the kind of experiment: CDK6 homogeneous time-resolved fluorescence (HTRF) kinase assay. Conditions: CDK6/CCND; x = IC50 >250 nM; read-out: CDK6/CCND IC50 (>250 nM column). The method in brief:
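Assay conditions: HEPES buffer containing 10 mM MgCl2, 1 mM EGTA, 2 mM DTT, 0.01% Tween 20; 1 nM CDK6/CCND1, 50 nM peptide substrate, 1 mM ATP. Detection after 60 min reaction used 2 nM europium antibody with 340 nm excitation. Potency fitted from half-log series, 11 points.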

Assay [4] deals with CDK1/CCNB1 (Homo sapiens, UniProt P06493). As to the kind of experiment: CDK1 homogeneous time-resolved fluorescence (HTRF) kinase assay. The following applies: CDK1/CCNB; x = IC50 >250 nM; read-out: CDK1/CCNB IC50 (>250 nM column). A digest of the protocol:
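HTRF assay with 0.5 nM CDK1/CCNB1, 1 mM ATP, 50 nM ULight-eIF4E-BP1 (Thr37/46) peptide; compound preincubated 20 min, reaction 60 min at 23 °C, EDTA stop, Eu-anti-phospho antibody detection. 11-point half-log titration from 10 μM, 1% DMSO; IC50 from 665 nm or 665/615 signal.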

Where [5] appears, read: x = IC50 25-250 nM, read-out: CDK2/CCNE IC50 (25-250 nM).
Setting [6] is: x = IC50 <25 nM, read-out: CDK2/CCNE IC50 (<25 nM).
Where [7] appears, read: x = IC50 >250 nM, read-out: CDK2/CCNE IC50 (>250 nM column).

CDK1/CCNB1, sequence (P06493 whole entry): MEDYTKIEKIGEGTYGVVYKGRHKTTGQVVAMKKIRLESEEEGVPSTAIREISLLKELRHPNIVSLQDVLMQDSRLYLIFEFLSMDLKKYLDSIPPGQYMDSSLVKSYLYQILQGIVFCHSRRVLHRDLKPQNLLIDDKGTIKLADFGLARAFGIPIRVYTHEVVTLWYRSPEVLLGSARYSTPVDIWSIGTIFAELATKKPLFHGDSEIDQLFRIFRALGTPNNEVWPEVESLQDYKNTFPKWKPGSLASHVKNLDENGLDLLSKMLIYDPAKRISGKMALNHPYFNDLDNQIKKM
CDK1/CCNB1, sequence (P14635 whole entry partner): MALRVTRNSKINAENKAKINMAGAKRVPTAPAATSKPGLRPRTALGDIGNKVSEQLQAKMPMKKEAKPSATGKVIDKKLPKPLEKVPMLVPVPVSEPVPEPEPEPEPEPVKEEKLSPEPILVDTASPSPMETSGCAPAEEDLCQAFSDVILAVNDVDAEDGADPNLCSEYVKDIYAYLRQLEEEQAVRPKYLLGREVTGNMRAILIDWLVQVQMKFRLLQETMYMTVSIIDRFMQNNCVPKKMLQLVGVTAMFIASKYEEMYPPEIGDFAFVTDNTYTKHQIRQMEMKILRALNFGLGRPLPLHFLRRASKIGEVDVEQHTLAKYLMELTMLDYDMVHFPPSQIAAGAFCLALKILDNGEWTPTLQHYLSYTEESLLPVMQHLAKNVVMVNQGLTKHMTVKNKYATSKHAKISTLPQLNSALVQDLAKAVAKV
CDK6/CCND1, sequence (Q00534 whole entry): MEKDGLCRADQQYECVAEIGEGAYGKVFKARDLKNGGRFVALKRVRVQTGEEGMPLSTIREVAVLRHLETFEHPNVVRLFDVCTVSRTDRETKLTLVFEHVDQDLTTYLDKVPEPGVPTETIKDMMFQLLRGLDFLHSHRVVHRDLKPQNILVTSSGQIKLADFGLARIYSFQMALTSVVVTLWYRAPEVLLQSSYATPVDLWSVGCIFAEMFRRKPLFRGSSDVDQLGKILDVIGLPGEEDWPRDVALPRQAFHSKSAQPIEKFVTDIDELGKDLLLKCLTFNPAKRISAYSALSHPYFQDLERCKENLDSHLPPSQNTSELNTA
CDK6/CCND1, sequence (P24385 whole entry partner): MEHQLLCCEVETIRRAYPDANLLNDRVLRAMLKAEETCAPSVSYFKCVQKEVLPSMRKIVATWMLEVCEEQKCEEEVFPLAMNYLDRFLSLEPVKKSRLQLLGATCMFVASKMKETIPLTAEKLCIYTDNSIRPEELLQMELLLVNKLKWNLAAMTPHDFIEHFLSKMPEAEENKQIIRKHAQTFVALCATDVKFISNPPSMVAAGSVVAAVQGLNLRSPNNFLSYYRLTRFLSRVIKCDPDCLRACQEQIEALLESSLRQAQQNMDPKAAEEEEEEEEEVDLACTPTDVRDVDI

In the case of `COc1ccnc(C#Cc2nccc3cnc(Nc4ccc(S(C)(=O)=O)cc4)cc23)c1N` [Ex 525, 5-((3-amino-4-methoxypyridin-2-yl)ethynyl)-N-(4-(methylsulfonyl)phenyl)-2,6-naphthyridin-3-amine], the IC50 in assay [1] (setting [5]) was 25 to 250 nM; in assay [2], above 250 nM; in assay [3], above 250 nM; in assay [4] it was above 250 nM.
As to `COc1ccc(C#Cc2nccc3cnc(Nc4ccc(S(C)(=O)=O)cc4)cc23)c(C)c1` [Ex 527, 5-((4-methoxy-2-methylphenyl)ethynyl)-N-(4-(methylsulfonyl)phenyl)-2,6-naphthyridin-3-amine], the IC50 in assay [1] (setting [5]) is 25 to 250 nM; in assay [2], above 250 nM; in assay [3], above 250 nM; in assay [4], above 250 nM.
With `CS(=O)(=O)c1ccc(Nc2cc3c(C#Cc4ccc(=O)n(C(F)F)c4)nccc3cn2)cc1` [Ex 528, 1-(difluoromethyl)-5-((7-((4-(methylsulfonyl)phenyl)amino)-2,6-naphthyridin-1-yl)ethynyl)pyridin-2(1H)-one], the IC50 is 25 to 250 nM in assay [1] (setting [5]), above 250 nM in assay [2], above 250 nM in assay [3] and above 250 nM in assay [4].
As to `CS(=O)(=O)c1ccc(Nc2cc3c(C#Cc4ccnc(C(F)F)c4)nccc3cn2)cc1` [Ex 529, 5-((2-(difluoromethyl)pyridin-4-yl)ethynyl)-N-(4-(methylsulfonyl)phenyl)-2,6-naphthyridin-3-amine], the IC50 was 25 to 250 nM in assay [1] (setting [5]), above 250 nM in assay [2], above 250 nM in assay [3] and above 250 nM in assay [4].
For the compound `CS(=O)(=O)c1ccc(Nc2cc3c(C#Cc4ccc(Cl)c(F)c4N)nccc3cn2)cc1` [Ex 530, 5-((2-amino-4-chloro-3-fluorophenyl)ethynyl)-N-(4-(methylsulfonyl)phenyl)-2,6-naphthyridin-3-amine], the IC50 in assay [1] (setting [5]) is 25 to 250 nM; in assay [2], above 250 nM; in assay [3], above 250 nM; in assay [4] it was above 250 nM.
Consider `CS(=O)(=O)c1ccc(Nc2cc3c(C#Cc4n[nH]c5c4CCC5)nccc3cn2)cc1` [Ex 531, N-(4-(methylsulfonyl)phenyl)-5-((1,4,5,6-tetrahydrocyclopenta[c]pyrazol-3-yl)ethynyl)-2,6-naphthyridin-3-amine], for which the IC50 was 25 to 250 nM in assay [1] (setting [5]), above 250 nM in assay [2], above 250 nM in assay [3] and above 250 nM in assay [4].
With `CS(=O)(=O)c1ccc(Nc2cc3c(C#Cc4ccc5c(C#N)c[nH]c5c4)nccc3cn2)cc1` [Ex 532, 6-((7-((4-(methylsulfonyl)phenyl)amino)-2,6-naphthyridin-1-yl)ethynyl)-1H-indole-3-carbonitrile], the IC50 in assay [1] (setting [5]) was 25 to 250 nM; in assay [2], above 250 nM; in assay [3], above 250 nM; in assay [4] it was above 250 nM.
As to `CS(=O)(=O)c1ccc(Nc2cc3c(C#Cc4cc(CO)cnc4N)nccc3cn2)cc1` [Ex 533, (6-amino-5-((7-((4-(methylsulfonyl)phenyl)amino)-2,6-naphthyridin-1-yl)ethynyl)pyridin-3-yl)methanol], the IC50 in assay [1] (setting [5]) is 25 to 250 nM; in assay [2], above 250 nM; in assay [3], above 250 nM; in assay [4] it was above 250 nM.
As to `CS(=O)(=O)c1ccc(Nc2cc3c(C#Cc4cnc(N)c(OC(F)F)c4)nccc3cn2)cc1` [Ex 534, 5-((6-amino-5-(difluoromethoxy)pyridin-3-yl)ethynyl)-N-(4-(methylsulfonyl)phenyl)-2,6-naphthyridin-3-amine], the IC50 in assay [1] (setting [5]) was 25 to 250 nM; in assay [2] it was above 250 nM; in assay [3], above 250 nM; in assay [4], above 250 nM.
In the case of `CS(=O)(=O)c1ccc(Nc2cc3c(C#Cc4cccc5ncnn45)nccc3cn2)cc1` [Ex 535, 5-([1,2,4]triazolo[1,5-a]pyridin-5-ylethynyl)-N-(4-(methylsulfonyl)phenyl)-2,6-naphthyridin-3-amine], the IC50 in assay [1] (setting [5]) was 25 to 250 nM; in assay [2] it was above 250 nM; in assay [3], above 250 nM; in assay [4], above 250 nM.
Regarding `CS(=O)(=O)c1ccc(Nc2cc3c(C#Cc4cnc(C#N)c(N)c4)nccc3cn2)cc1` [Ex 536, 3-amino-5-((7-((4-(methylsulfonyl)phenyl)amino)-2,6-naphthyridin-1-yl)ethynyl)picolinonitrile], the IC50 in assay [1] (setting [5]) was 25 to 250 nM; in assay [2], above 250 nM; in assay [3], above 250 nM; in assay [4], above 250 nM.
For the compound `CS(=O)(=O)c1ccc(Nc2cc3c(C#Cc4cnncc4N)nccc3cn2)cc1` [Ex 537, 5-((5-aminopyridazin-4-yl)ethynyl)-N-(4-(methylsulfonyl)phenyl)-2,6-naphthyridin-3-amine], the IC50 was below 25 nM in assay [1] (setting [6]), above 250 nM in assay [2], above 250 nM in assay [3] and above 250 nM in assay [4].
Regarding `CN(C)c1ncc(C#Cc2nccc3cnc(Nc4ccc(S(C)(=O)=O)cc4)cc23)cn1` [Ex 538, 5-((2-(dimethylamino)pyrimidin-5-yl)ethynyl)-N-(4-(methylsulfonyl)phenyl)-2,6-naphthyridin-3-amine], the IC50 in assay [1] (setting [5]) is 25 to 250 nM; in assay [2], above 250 nM; in assay [3], above 250 nM; in assay [4], above 250 nM.
Take `CS(=O)(=O)c1ccc(Nc2cc3c(C#Cc4ccc(OC(F)F)nc4)nccc3cn2)cc1` [Ex 539, 5-((6-(difluoromethoxy)pyridin-3-yl)ethynyl)-N-(4-(methylsulfonyl)phenyl)-2,6-naphthyridin-3-amine]: the IC50 was 25 to 250 nM in assay [1] (setting [5]), above 250 nM in assay [2], above 250 nM in assay [3] and above 250 nM in assay [4].
Turning to `Cc1nc(C#Cc2nccc3cnc(Nc4ccc(S(C)(=O)=O)cc4)cc23)sc1C` [Ex 540, 5-((4,5-dimethylthiazol-2-yl)ethynyl)-N-(4-(methylsulfonyl)phenyl)-2,6-naphthyridin-3-amine], the IC50 in assay [1] (setting [7]), in assay [2], in assay [3] and in assay [4] was above 250 nM in each case.
Regarding `Cc1nc(N)nc(C)c1C#Cc1nccc2cnc(Nc3ccc(S(C)(=O)=O)cc3)cc12` [Ex 541, 5-((2-amino-4,6-dimethylpyrimidin-5-yl)ethynyl)-N-(4-(methylsulfonyl)phenyl)-2,6-naphthyridin-3-amine], the IC50 in assay [1] (setting [5]) was 25 to 250 nM; in assay [2] it was above 250 nM; in assay [3], above 250 nM; in assay [4], above 250 nM.
Take `CC(C)(O)c1nc2ccc(C#Cc3nccc4cnc(Nc5ccc(S(C)(=O)=O)cc5)cc34)cc2[nH]1` [Ex 542, 2-(6-((7-((4-(methylsulfonyl)phenyl)amino)-2,6-naphthyridin-1-yl)ethynyl)-1H-benzo[d]imidazol-2-yl)propan-2-ol]: the IC50 in assay [1] (setting [6]) is below 25 nM; in assay [2], above 250 nM; in assay [3] it was above 250 nM; in assay [4] it was above 250 nM.
As for `CC(C)(O)Cn1cnc2ccc(C#Cc3nccc4cnc(Nc5ccc(S(C)(=O)=O)cc5)cc34)cc21` [Ex 543, 2-methyl-1-(6-((7-((4-(methylsulfonyl)phenyl)amino)-2,6-naphthyridin-1-yl)ethynyl)-1H-benzo[d]imidazol-1-yl)propan-2-ol], the IC50 in assay [1] (setting [7]), in assay [2], in assay [3] and in assay [4] was above 250 nM each time.

The values are drawn from US20260325533A1, “CDK INHIBITOR COMPOUNDS” (ALEKSIA THERAPEUTICS, INC., priority 2023, published 2026).
